This is an account of results in US10849904B2, “Methods for treatment of retinal disease by photoreceptor gene expression modulation” (University of Washington, priority 2015, dated 2020).

One assay relates to S opsin+ photoreceptors. The assay is described as follows: Injection of timed-pregnant dams at E14 and E17, S opsin+ photoreceptors in P0 pups. In kind it is in vivo, mouse. Particulars: dams injected 100 μl of 50 mM at E14 and E17, pups analysed at P0, vs controls. As for the experimental part: (§1) Nr2e3 is expressed in developing rods prior to birth, and so to test whether PR1 could affect prenatal rod development, wild type timed-pregnant dams were injected with 100 μl of 50 mM PR1 at E14 and E17, during peak S cone photoreceptor genesis and the onset of Nr2e3 expression (FIG. 7F). The pups were sacrificed at P0 and their retinas collected for staining and for quantifying S opsin+ photoreceptors. […] To determine if PR1 affected rhodopsin expression in developing rods in vivo, pups were injected with 20 μl of 50 mM PR1 or an equal volume of DMSO at P2 or P3 (FIG. 7I). The pups were sacrificed the following day and analyzed rhodopsin expression by qPCR.
Retinal explants or eyecups were fixed in 4% PFA in 1×PBS for 20 minutes at room temperature and then cryoprotected in 30% sucrose in 1×PBS overnight at 4° C. Samples were embedded in OCT (Sakura Finetek), frozen on dry ice, and then sectioned at 14-16 μm on a cryostat (Leica). Slides were blocked with a solution containing 10% Normal Horse Serum (Vector Labs) and 0.5% Triton X-100 (Sigma-Aldrich) in 1×PBS for 1 hour at room temperature and then stained overnight at 4° C. with primary antibodies diluted in blocking solution. […]

In another assay the test system is retinas from P0 mice. Nature of the assay: P0 mouse retinal explants: Western blot, qPCR, immunohistochemistry. The class given is cell-based. Particulars: 1 μM. As for the experimental part: Loss-of-function mutations in Nr2e3 cause an increase in the number of S-opsin+ photoreceptors and a decrease in rhodopsin expression. To determine whether PR1 has similar effects on developing photoreceptors, retinas from P0 mice were explanted in media containing DMSO or 1 μM PR1 and assessed the level of rod genes with Western blots and qPCR after two to five days in vitro (FIG. 7A). […] Expression of additional genes was tested using qPCR. After 2 days in culture PR1 decreased the expression of the rod specific genes Nrl, Nr2e3, Rho, and Gnat1 compared to DMSO (FIG. 7D).
Intact retinas without RPE from mice of various strains and ages as indicated were explanted on 0.4 μm pore tissue culture inserts (Millipore) as previously described (Ueki, Y., et al., P53 is required for the developmental restriction in Muller glial proliferation in mouse retina. Glia, 2012. 60(10): p. 1579-89; Ueki, Y., et al., A transient wave of BMP signaling in the retina is necessary for Muller glial differentiation. Development, 2015. 142(3): p. 533-43. Full media (DMEM/F12 (1:1) containing 1% dialyzed FBS, 1% Pen Strep, 0.3% D+ glucose, 2% B27, and 1% N2) changes were performed every other day and small molecules were used at 0.1 μM to 10 μM. Where indicated, EdU (Invitrogen) was included in the media at 5 μg/mL and visualized by staining with the Click-iT EdU Alexa Fluor kit (Thermo Fisher Scientific). For human retinal explant cultures, tissue from 113 day post-conception fetuses was obtained from the University of Washington Birth Defects Laboratory and explanted on 0.4 μm pore tissue culture inserts (Millipore) in media (Neurobasal A with 1% FBS, 1% Pen Strep, 1% N2, 1% B27) containing 10 μM Photoregulin1 or an equal volume of DMSO.
(§2) RNA was isolated using TRIzol (Invitrogen) and cDNA was synthesized using the iScript cDNA synthesis kit (Bio-Rad) following an intervening DNase treatment with RQ1 RNase-free DNase (Promega). SSO Fast (Bio-Rad) was used for quantitative real-time PCR. For analysis, values were normalized to Gapdh and ΔΔCt between DMSO and compound-treated samples was expressed as percent of DMSO treated controls (100*2^ΔΔCt). Two-way Student's t-tests were performed on ΔCt values.
Retinal explants or eyecups were fixed in 4% PFA in 1×PBS for 20 minutes at room temperature and then cryoprotected in 30% sucrose in 1×PBS overnight at 4° C. Samples were embedded in OCT (Sakura Finetek), frozen on dry ice, and then sectioned at 14-16 μm on a cryostat (Leica). Slides were blocked with a solution containing 10% Normal Horse Serum (Vector Labs) and 0.5% Triton X-100 (Sigma-Aldrich) in 1×PBS for 1 hour at room temperature and then stained overnight at 4° C. with primary antibodies diluted in blocking solution. Slides were washed three times with 1×PBS the following day and then incubated in secondary antibodies (Life Technologies) diluted in blocking solution for 2 hours at room temperature, stained with DAPI (Sigma-Aldrich), washed, and coverslipped using Fluoromount-G (SouthernBiotech). An Olympus FluoView FV1000 was used for confocal microscopy.
Retinal explants or retinas were homogenized in lysis buffer (50 mM Tris, 100 mM NaCl, 5 mM EDTA, 0.1% SDS, 1% Triton X-100, 2.5% glycerol, and 1× protease inhibitor cocktail) and equal amounts of protein samples were loaded and run in a 4-20% SDS gel (Bio-Rad). Protein was transferred to a PVDF membrane (Thermo Fisher Scientific), blocked (5% BSA and 0.1% Tween 20 in 1×PBS) and stained with primary antibodies (Supplemental Table S2) and then HRP-conjugated secondaries (Bio-Rad) diluted in blocking solution. Signals were visualized on X-ray film with SuperSignal West Dura Extended Duration Substrate (Thermo Fisher Scientific) and quantified using ImageJ software (NIH).
A general note: A western blot detects proteins with antibodies after separation by electrophoresis.

For assay [1], the system named is retina from Rho^P23H transgenic mice at P8. Nature of the assay: P8 Rho^P23H retinal explants, rhodopsin Western blot. To be noted: 2 μM, three days. In kind it is cell-based, mouse. An excerpt:
The effect of PR1 on Rho expression in adult rods might have potential as a way to slow the degeneration of these cells in dominant forms of retinitis pigmentosa, like Rho^P23H. In this disease, the affected individuals express a mutant form of rhodopsin that is likely inappropriately processed and ultimately leads to the death of the rods. […] The majority of rod cell death in the Rho^P23H transgenic line occurs between P14 and P21. […] […] The number of nuclei were counted in the ONL of each retina in the central region 100 μm from the optic nerve head. […] Gnb1 expression was also monitored as another measure of rod photoreceptor preservation because this is not directly affected by PR1 and thus serves as a surrogate for rod number. […]
Retinal explants or retinas were homogenized in lysis buffer (50 mM Tris, 100 mM NaCl, 5 mM EDTA, 0.1% SDS, 1% Triton X-100, 2.5% glycerol, and 1× protease inhibitor cocktail) and equal amounts of protein samples were loaded and run in a 4-20% SDS gel (Bio-Rad). […] Signals were visualized on X-ray film with SuperSignal West Dura Extended Duration Substrate (Thermo Fisher Scientific) and quantified using ImageJ software (NIH).

The test system of another assay is rhodopsin. Nature of the assay: IP injection of P2 or P3 pups, rhodopsin expression by qPCR. In kind it is in vivo, mouse. Particulars: pups IP 20 μl of 50 mM at P2 or P3, sacrificed the following day, vs DMSO. As for the experimental part: as §1, §2
For intravitreal injections, adult mice (>P21) were anesthetized with isoflurane and injected with 1.5 μl of 10 mM PR1 using a 32-gauge Hamilton needle. […]
Background: In qPCR the cycle at which signal appears reflects the starting amount.

Take `Cc1cc(C)cc(NC(=O)CCc2nc3sc4c(c3c(=O)[nH]2)CCCC4)c1` [PR1, N-(3,5-dimethylphenyl)-3-(4-oxo-5,6,7,8-tetrahydro-3H-[1]benzothiolo[2,3-d]pyrimidin-2-yl)propanamide]: the “number of S opsin-positive cells in pups” value in the assay on S opsin+ photoreceptors is “increase in the number of S opsin-positive cells”. Further, the “rhodopsin protein, Western blot” value in the assay with retinas from P0 mice (5 DIV, vs DMSO) is listed as “less rhodopsin protein”. Moreover, in the assay on retinas from P0 mice (2 days, qPCR, vs DMSO), the Crx expression result was “did not significantly decrease”, the Gnat1 expression entry is “decreased”, the Gnb1 expression entry is recorded as “did not significantly decrease” and the Nr2e3 expression result was “decreased”. For the same molecule, in the assay with retinas from P0 mice (2 days, qPCR, vs DMSO), the Nrl expression entry is “decreased”, the Otx2 expression entry is listed as “did not significantly decrease” and the Rho expression entry was “decreased”. In addition, in the assay on retinas from P0 mice (immunohistochemistry), the “rhodopsin immunoreactivity in sections” value is listed as “almost complete absence of rhodopsin immunoreactivity”. The “Thrb (cone gene) expression” value in the assay on retinas from P0 mice (qPCR, vs DMSO) was “increased”. Besides, the “level of S opsin immunoreactivity in sectioned explants” value in the assay on retinas from P0 mice (vs DMSO) is on record as “overall increase”. Besides, the “rhodopsin expression in the mutant rods” value in assay [1] is on record as “effectively reduced rhodopsin expression”. Moreover, in the assay on rhodopsin, the “rhodopsin expression by qPCR” value is on record as “decreased rhodopsin”.
